In this assay the target is T1, RPE65 (Gallus gallus, UniProt Q9YGX2).
T1 construct: purified chicken recombinant RPE65
T1 sequence (Q9YGX2 1-533): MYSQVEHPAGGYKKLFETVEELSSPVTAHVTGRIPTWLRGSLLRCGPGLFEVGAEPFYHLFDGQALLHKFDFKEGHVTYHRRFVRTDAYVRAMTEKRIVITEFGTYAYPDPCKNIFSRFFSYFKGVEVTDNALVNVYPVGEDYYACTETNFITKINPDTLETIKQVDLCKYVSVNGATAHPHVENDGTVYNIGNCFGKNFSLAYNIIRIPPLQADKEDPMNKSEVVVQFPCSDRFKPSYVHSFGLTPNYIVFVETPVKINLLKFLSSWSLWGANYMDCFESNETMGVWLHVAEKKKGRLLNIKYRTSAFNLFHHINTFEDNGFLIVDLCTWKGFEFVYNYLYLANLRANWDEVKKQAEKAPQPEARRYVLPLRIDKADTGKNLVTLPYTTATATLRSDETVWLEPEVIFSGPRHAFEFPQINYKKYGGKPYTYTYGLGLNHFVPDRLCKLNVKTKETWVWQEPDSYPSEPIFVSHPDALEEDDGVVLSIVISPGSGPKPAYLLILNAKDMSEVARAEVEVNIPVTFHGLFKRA
Put plainly: liposome-based isomerohydrolase assay with all-trans-retinyl palmitate, HPLC of 11-cis-retinol, Lineweaver-Burk. The class given is biochemical.

Broadly, the Ki is the dissociation constant of the complex between target and ligand, obtained from inhibition or displacement. As for `N=S(=O)(CCN)c1cccc(OCC2CCCCC2)c1` (racemic) [(±)-9, (±)-(2-aminoethyl)(3-(cyclohexylmethoxy)phenyl)(imino)-ƛ^6-sulfanone], the Ki came to 119 ± 11 nM.

The record behind these values is PMC9560169, “The novel visual cycle inhibitor (±)-RPE65-61 protects retinal photoreceptors from light-induced degeneration” (PLoS ONE, 2022).
